According to patent US8338422B2, “Indolin-2-ones and aza-indolin-2-ones” (Janssen Pharmaceutica NV, priority 2007, dated 2012):

Legend:
AuroraB (h) = AuroraB (h) (Homo sapiens, UniProt Q96GD4); test: Aurora-B human kinase assay (SPA); type: biochemical; settings: read-out: AuroraB pIC50 (converted)
How it was run: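 Scintillation proximity assay: AuroraB (h) at 0.5 μg/ml with 3 μM biotinylated peptide, 0.5 μM ATP and 2.2 nM [γ-33P]ATP in 60 mM Hepes pH 7.5, 3 mM MgCl2, 3 mM MnCl2, 2 mM DTT. 60 min at room temperature, EDTA stop, streptavidin PVT beads read on Leadseeker.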

PLK4 (h) = PLK4 (h) (Homo sapiens, UniProt O00444); test: PLK-4 human kinase assay (SPA); type: biochemical; settings: read-out: PLK4 pIC50 (converted)
PLK4 (h), sequence (O00444 whole entry): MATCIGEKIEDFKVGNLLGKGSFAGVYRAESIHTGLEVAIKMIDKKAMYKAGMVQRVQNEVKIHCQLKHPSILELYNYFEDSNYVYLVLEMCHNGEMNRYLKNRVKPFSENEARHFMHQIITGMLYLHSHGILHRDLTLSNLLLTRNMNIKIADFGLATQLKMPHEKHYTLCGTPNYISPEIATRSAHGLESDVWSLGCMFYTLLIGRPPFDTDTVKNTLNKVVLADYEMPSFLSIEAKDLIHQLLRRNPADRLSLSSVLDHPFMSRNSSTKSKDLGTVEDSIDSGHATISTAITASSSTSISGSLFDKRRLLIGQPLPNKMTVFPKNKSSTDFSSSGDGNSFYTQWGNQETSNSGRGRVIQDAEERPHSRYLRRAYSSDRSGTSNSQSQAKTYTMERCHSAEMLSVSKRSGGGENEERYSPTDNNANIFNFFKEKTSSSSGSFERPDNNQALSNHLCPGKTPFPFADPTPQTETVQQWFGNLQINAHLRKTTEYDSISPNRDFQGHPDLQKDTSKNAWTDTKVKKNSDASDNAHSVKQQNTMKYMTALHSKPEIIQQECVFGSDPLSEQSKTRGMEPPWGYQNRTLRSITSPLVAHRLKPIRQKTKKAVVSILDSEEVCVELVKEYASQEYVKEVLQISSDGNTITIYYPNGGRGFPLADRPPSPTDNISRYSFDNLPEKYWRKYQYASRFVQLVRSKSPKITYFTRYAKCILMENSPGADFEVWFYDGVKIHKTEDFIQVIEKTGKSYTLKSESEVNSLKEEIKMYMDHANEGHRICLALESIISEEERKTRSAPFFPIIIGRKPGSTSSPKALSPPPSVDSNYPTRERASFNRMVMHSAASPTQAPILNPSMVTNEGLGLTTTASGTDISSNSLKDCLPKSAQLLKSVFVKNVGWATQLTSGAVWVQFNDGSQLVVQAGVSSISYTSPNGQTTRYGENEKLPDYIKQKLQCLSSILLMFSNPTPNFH
How it was run: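 Radiometric readout: 33P-labelled peptide captured on streptavidin SPA beads after EDTA stop, imaged by Leadseeker. Reaction ran 60 min at room temperature in Hepes pH 8.0 buffer. It contained 1 μM ATP with 2 nM [γ-33P]ATP, 10 μM biotinylated peptide and PLK4 (h) at 19 μg/ml.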

CDK1/CyclinB (h) = CDK1/CyclinB (h) (Homo sapiens, UniProt P06493); test: CDK1/CyclinB human kinase assay (FRET); type: biochemical; settings: read-out: CDK1 pIC50 (converted)
CDK1/CyclinB (h), sequence (P06493 whole entry): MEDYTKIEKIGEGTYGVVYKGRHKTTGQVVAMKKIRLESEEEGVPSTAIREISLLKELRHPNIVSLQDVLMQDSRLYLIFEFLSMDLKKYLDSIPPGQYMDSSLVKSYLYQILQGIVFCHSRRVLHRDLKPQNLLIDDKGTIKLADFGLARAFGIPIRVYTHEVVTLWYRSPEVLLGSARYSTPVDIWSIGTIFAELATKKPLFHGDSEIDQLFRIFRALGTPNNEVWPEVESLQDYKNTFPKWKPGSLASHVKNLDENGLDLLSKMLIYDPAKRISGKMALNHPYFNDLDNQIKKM
CDK1/CyclinB (h), sequence (P14635 whole entry partner): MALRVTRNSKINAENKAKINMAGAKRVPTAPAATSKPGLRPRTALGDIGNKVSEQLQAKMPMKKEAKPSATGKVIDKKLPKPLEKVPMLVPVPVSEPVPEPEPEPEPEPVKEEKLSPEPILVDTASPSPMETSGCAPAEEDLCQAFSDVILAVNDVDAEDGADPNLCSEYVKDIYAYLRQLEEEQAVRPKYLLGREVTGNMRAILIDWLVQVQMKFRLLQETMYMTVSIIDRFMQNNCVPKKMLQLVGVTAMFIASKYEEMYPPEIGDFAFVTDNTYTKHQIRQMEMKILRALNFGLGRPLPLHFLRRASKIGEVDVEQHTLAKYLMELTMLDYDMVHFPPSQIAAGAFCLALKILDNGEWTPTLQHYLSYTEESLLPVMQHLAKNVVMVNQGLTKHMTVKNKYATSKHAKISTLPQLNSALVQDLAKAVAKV
How it was run: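 Z'-LYTE FRET format: 0.2 μg/ml enzyme with 2 μM Ser/Thr peptide 12 and 10 μM ATP in 50 mM Hepes pH 7.5, 10 mM MgCl2, 1 mM EGTA, 0.01% Brij-35, 60 min at room temperature. Protease development 60 min; coumarin/fluorescein emission ratio (460/538 nm, excitation 390 nm) reports phosphorylation.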

GSK3β (h) = GSK3β (h) (Homo sapiens, UniProt P49841); test: GSK-3β human kinase assay (SPA); type: biochemical; settings: read-out: GSK3B pIC50 (converted)
GSK3β (h), sequence (P49841 whole entry): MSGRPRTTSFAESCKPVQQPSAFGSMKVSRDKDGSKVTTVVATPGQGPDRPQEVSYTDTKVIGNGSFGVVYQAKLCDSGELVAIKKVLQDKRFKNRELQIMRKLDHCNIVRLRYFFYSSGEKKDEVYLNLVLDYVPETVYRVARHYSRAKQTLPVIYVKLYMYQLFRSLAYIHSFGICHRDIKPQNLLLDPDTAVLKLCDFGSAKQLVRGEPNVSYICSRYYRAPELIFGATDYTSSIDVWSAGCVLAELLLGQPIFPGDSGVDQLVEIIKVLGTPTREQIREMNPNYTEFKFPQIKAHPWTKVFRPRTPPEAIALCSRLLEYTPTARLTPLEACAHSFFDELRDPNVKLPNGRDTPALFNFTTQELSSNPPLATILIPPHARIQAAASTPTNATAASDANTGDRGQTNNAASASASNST
How it was run: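 Radiometric SPA read-out: after EDTA stop, biotinylated 33P-labelled peptide bound streptavidin PVT beads and was imaged on Leadseeker. Reaction: 60 min, room temperature, GSK3β (h) at 1 μg/ml, 1 μM substrate peptide, 1 μM ATP with 2 nM [γ-33P]ATP, Tris pH 7.4/MgCl2/DTT buffer.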

SKOV3 = test: Cellular proliferation assay (Alamar blue), SKOV3; type: cell-based; settings: Homo sapiens, SK-OV-3, SKOV3 cells, 72 hours with compound, 10% FCS, read-out: pIC50 SKOV3 (converted)
Procedure: (§1) […] functional properties of these compounds was tested in cellular proliferation assays on a panel of different cell lines in the presence of 10% FCS serum (37° C. and 5% (v/v) CO2). In a first step these cells were seeded and incubated for 24 hours in the absence of compound. In the second step the cells were incubated for 72 hours with the compounds to be tested for 72 hours. The viable cell number was finally assessed in a standard Alamar blue cell viability assay.
(§2) The viable cell number was assessed by incubation for either 4 h (HCT-116, H1299, H460) 6 h (SKOV3, HT29, U87-MG, Colo205) or 24 h (A2780, PC3, MDA-MB-231, A549, MCF-7) with Alamar blue (Resazurin 9 μg/ml, K-Ferrocyanide 90 μM K-Ferricyanide 90 μM) and the converted fluorescent product was quantified on a fluorescent plate readed (544 nm/590 nm). Effect of the compounds is calculated as of on control cells.

HT-29 = test: Cellular proliferation assay (Alamar blue), HT-29; type: cell-based; settings: Homo sapiens, HT-29 cells, 72 hours with compound, 10% FCS, read-out: pIC50 HT-29 (converted)
Procedure: as §1, §2

A549 = test: Cellular proliferation assay (Alamar blue), A549; type: cell-based; settings: Homo sapiens, A549 cells, 72 hours with compound, 10% FCS, read-out: pIC50 A549 (converted)
Procedure: as §1, §2

A431 = test: Cellular proliferation assay (Alamar blue), A431; type: cell-based; settings: Homo sapiens, A-431, A431 cells, 72 hours with compound, 10% FCS, read-out: pIC50 A431 (converted)
Procedure: as §1, §2

SK-N-SH = test: Cellular proliferation assay (Alamar blue), SK-N-SH; type: cell-based; settings: Homo sapiens, SK-N-SH cells, 72 hours with compound, 10% FCS, read-out: pIC50 SK-N-SH (converted)
Procedure: as §1, §2

H460 = test: Cellular proliferation assay (Alamar blue), H460; type: cell-based; settings: Homo sapiens, NCI-H460, H460 cells, 72 hours with compound, 10% FCS, read-out: pIC50 H460 (converted)
Procedure: as §1, §2

PC-3 = test: Cellular proliferation assay (Alamar blue), PC-3; type: cell-based; settings: Homo sapiens, PC-3, 72 h, PC-3 cells, 72 hours with compound, 10% FCS, read-out: pIC50 PC-3 (converted)
How it was run: (§3)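 Proliferation was assessed over 72 h of compound treatment, following 24 h of seeding without compound, under 10% FCS, 37° C. and 5% CO2. Fluorescent resazurin product was measured and compared with control cells.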

DU-145 = test: Cellular proliferation assay (Alamar blue), DU-145; type: cell-based; settings: Homo sapiens, DU-145 cells, 72 hours with compound, 10% FCS, read-out: pIC50 DU-145 (converted)
Procedure: as §1, §2

HCT-116 = test: Cellular proliferation assay (Alamar blue), HCT-116; type: cell-based; settings: Homo sapiens, HCT-116, 72 h, HCT-116 cells, 72 hours with compound, 10% FCS, read-out: pIC50 HCT-116 (converted)
How it was run: as §3

H1299 = test: Cellular proliferation assay (Alamar blue), H1299; type: cell-based; settings: Homo sapiens, NCI-H1299, 72 h, H1299 cells, 72 hours with compound, 10% FCS, read-out: pIC50 H1299 (converted)
How it was run: as §3

MCF-7 = test: Cellular proliferation assay (Alamar blue), MCF-7; type: cell-based; settings: Homo sapiens, MCF7, MCF-7 cells, 72 hours with compound, 10% FCS, read-out: pIC50 MCF-7 (converted)
Procedure: as §1, §2

MDA/MB231 = test: Cellular proliferation assay (Alamar blue), MDA/MB231; type: cell-based; settings: Homo sapiens, MDA-MB-231, 72 h, MDA/MB231 cells, 72 hours with compound, 10% FCS, read-out: pIC50 MDA/MB231 (converted)
How it was run: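 Viable cell counts come from an Alamar blue assay: resazurin 9 μg/ml plus 90 μM K-ferrocyanide and 90 μM K-ferricyanide, incubated 24 h for MDA-MB-231 or 4 h for H460, with fluorescence read at 544/590 nm. Compound treatment lasted 72 h in 10% FCS after 24 h seeding.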

Colo205 = test: Cellular proliferation assay (Alamar blue), Colo205; type: cell-based; settings: Homo sapiens, COLO 205, Colo205 cells, 72 hours with compound, 10% FCS, read-out: pIC50 Colo205 (converted)
Procedure: as §1, §2

AuroraB (h), sequence (Q96GD4 whole entry): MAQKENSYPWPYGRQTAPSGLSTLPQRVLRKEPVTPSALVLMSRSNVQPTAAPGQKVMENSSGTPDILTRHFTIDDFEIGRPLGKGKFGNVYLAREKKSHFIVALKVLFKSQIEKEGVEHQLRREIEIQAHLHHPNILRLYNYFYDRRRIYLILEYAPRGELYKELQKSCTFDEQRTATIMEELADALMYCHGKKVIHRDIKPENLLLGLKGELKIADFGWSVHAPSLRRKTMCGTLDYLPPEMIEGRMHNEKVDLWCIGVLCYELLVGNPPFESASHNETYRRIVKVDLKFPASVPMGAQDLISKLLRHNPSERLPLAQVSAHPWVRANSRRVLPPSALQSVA

| Compound | melting point | IC50 (AuroraB (h)) | IC50 (PLK4 (h)) | IC50 (CDK1/CyclinB (h)) | IC50 (GSK3β (h)) | IC50 (SKOV3) | IC50 (HT-29) | IC50 (A549) | IC50 (A431) | IC50 (SK-N-SH) | IC50 (H460) | IC50 (PC-3) | IC50 (DU-145) | IC50 (HCT-116) | IC50 (H1299) | IC50 (MCF-7) | IC50 (MDA/MB231) | IC50 (Colo205) |
| --- | --- | --- | --- | --- | --- | --- | --- | --- | --- | --- | --- | --- | --- | --- | --- | --- | --- | --- |
| CN1CC(=O)N(CCN2CCOCC2)CCC(=O)NCC#Cc2cccc3c2/C(=C/Nc2cccc(c2)S1(=O)=O)C(=O)N3 [Compound 5] | > 240 °C | 8.32 µM | 4.17 µM | > 10 µM | 8.13 µM | – | – | – | – | – | – | – | – | – | – | – | – | – |
| O=C1Nc2ncnc3c2C1=CNc1ccc(c(Cl)c1)OCCCCCC(=O)N1CCN3CC1 (mixture of isomers) [Compound 14] | – | > 10 µM | > 10 µM | – | – | > 10 µM | > 10 µM | > 10 µM | > 10 µM | > 10 µM | > 10 µM | > 10 µM | > 10 µM | > 10 µM | > 10 µM | > 10 µM | > 10 µM | > 10 µM |
| CN1CCCC(=O)NCC#Cc2cccc3c2/C(=C/Nc2cccc(c2)S(=O)(=O)N(C)CC1=O)C(=O)N3 [Compound 3] | > 240 °C | > 10 µM | 3.16 µM | > 10 µM | 1.86 µM | – | – | – | – | – | – | – | – | – | – | – | – | – |
